Data on 6 compounds can be found in patent EP3373009A1, “FLUORESCENT COMPOUNDS FOR THE DETECTION OF MALIGNANT MELANOMA” (Karlsruher Institut für Technologie, priority 2017, dated 2018).

SMILES strings stand for the structures.

Assay [1] relates to human melanoma cells SK-Mel28. The assay is described as follows: Cellular uptake of fluorescent compounds by CLSM with fluorescence quantification (Example 2, Fig. 3). The class given is cell-based. The note with it: 20 µM in DMF, 5 hrs; for fluorescence signal: excitation 488 nm, background subtracted; for difference in the uptake between SK-Mel28 and HeLa cells: SK-Mel28 versus HeLa (negative control). How it is done: The cellular uptake of the fluorescent compounds according to the present invention was studied by treatment of human melanoma cells SK-Mel28 and HeLa cells (human cervix carcinoma cell line as a negative control, common model cell line) and their investigation via CLSM (confocal laser scanning microscopy).
(§1) The aforementioned cells were seeded in an ibidi® µ-slide 8 well in a density of 2x10^5/mL and cultured for two days to confluency, before being treated with the fluorescent compounds in a concentration of 20 µM in DMF (dimethylformamide). After an incubation time of 5 hrs, the adherent cell layers were washed three times with PBS (phosphate buffered saline) and the nuclei were stained with Hoechst 33342 (Invitrogen, 0.5 µg/mL, 20 min). During the microscopic studies (Leica TCS-SP-5, inverted microscope), the fluorescent compounds were excited using an Ar-laser at 488 nm. Excitation of the Hoechst dye was accomplished with an UV-Laser at 351 and 364 nm. Due to the overlap of the emission spectra of both dyes, a sequential mode was chosen for recording the cell images.
The resulting cell images were analyzed in terms of fluorescence quantification at 488 nm excitation using the software imaged 1.50i (Wayne Rasband, National Institutes of Health, USA).
From each cell image, five cells were selected as regions of interest and the related fluorescence signals were quantified (mean value and standard deviation). Additionally, three cell-free regions were selected in each cell image as background and the resulting background signal from these regions was subtracted from the cell signal.

The next assay deals with MEB4 cells. The assay is described as follows: Cellular uptake of the MSF in 2D cell culture, evaluated by CLSM (Example 1). In kind it is cell-based, murine. The note with it: 20 µM in DMF, 5 hrs. How it is done: (§2) Two-dimensional cell cultures were treated with the fluorescent compound (I-1) as the MSF, represented by the following formula: [drawing 22]
(§3) Diverse cell lines as well as primary skin cells such as U2OS, SHSY, A459, H4, Hek293, HepG2, HCT116, U251, MCF-7, Ratfib, HUVEC, Fibroblasts, and HeLa were treated with the MSF at a concentration of 20 µM in DMF (dimethylformamide) for 5 hrs and subsequently evaluated by means of CLSM (confocal laser scanning microscopy).
(§4) In addition, murine (MEB4) as well as human (SK-Mel28) malignant melanoma cells were treated with the MSF under the same conditions.
(§5) The experimental procedure was similar to that of Example 2, as described below.
as §1, with “Due to the overlap of the emission spectra of both dyes, a sequential mode was chosen for recording the cell images.” left out

The next assay has as its system HeLa cells. The assay can be described thus: Cellular uptake of the MSF in 2D cell culture, evaluated by CLSM (Example 1), non-affected control cells. The class given is cell-based, human. The note with it: 20 µM in DMF, 5 hrs. How it is done:
as §2, §3, §4, §5
as §1, with “Due to the overlap of the emission spectra of both dyes, a sequential mode was chosen for recording the cell images.” left out

Regarding `O=C(OCC1CSCC#CCO1)N1CCN(C(=O)c2ccccc2-c2c3ccc(=O)cc-3oc3cc(O)ccc23)CC1` (stereo not shown) [I-17], in assay [1], the fluorescence signal result is listed as “slightly weaker fluorescence signals”; the “difference in the uptake between SK-Mel28 and HeLa cells” value (from here on “difference”) is reported as “significant differences in the uptake”.

Consider `O=C(NCCCCNC(=O)C1(F)C#CCCCCC1)c1ccc(-c2c3ccc(=O)cc-3oc3cc(O)ccc23)c(C(=O)O)c1` (stereo not shown) [I-25], for which, in assay [1], the fluorescence signal entry is given as “slightly weaker fluorescence signals”; the “difference” value is listed as “significant differences in the uptake”.

As for `O=C(c1ccc(OC2C#CCCCCC2)cc1)N1CCN(C(=O)c2ccccc2-c2c3ccc(=O)cc-3oc3cc(O)ccc23)CC1` (stereo not shown) [I-14], in assay [1], the fluorescence signal result was “slightly weaker fluorescence signals”; the “difference” value was “significant differences in the uptake”.

`O=C(c1ccc2[nH]ccc2c1)N1CCN(C(=O)c2ccccc2-c2c3ccc(=O)cc-3oc3cc(O)ccc23)CC1` [I-20]: in assay [1], the fluorescence signal result is reported as “slightly weaker fluorescence signals”; the “difference” value is on record as “significant differences in the uptake”.

`O=C(c1ccccc1-c1c2ccc(=O)cc-2oc2cc(O)ccc12)N1CCN(C(=O)C2(F)C#CCCCCC2)CC1` (stereo not shown) [I-1]: the “fluorescence generated by the MSF in CLSM images” value in the assay on MEB4 cells (MEB4 cells, Fig. 2) was “can be recognized throughout the cytoplasm”. The “uptake by the cells” value in the assay with MEB4 cells (MEB4 malignant melanoma cells) is on record as “effectively been taken up”. In addition, in the assay on HeLa cells (HeLa cells, Fig. 1), the “fluorescence originating from the MSF in CLSM images” value is reported as “no fluorescence apparent”. Besides, the “uptake by the cells” value in the assay on HeLa cells (HeLa non-affected cells) was “not significantly been taken up”. In assay [1], the fluorescence signal result was “high fluorescence signal”; the “difference” value was “large difference in the uptake”.

`O=C(c1ccccc1-c1c2ccc(=O)cc-2oc2cc(O)ccc12)N1CCN(C(=O)C23CC4CC(CC(C4)C2)C3)CC1` [I-18]: in assay [1], the fluorescence signal result is “slightly weaker fluorescence signals”; the “difference” value is on record as “significant differences in the uptake”.
